Measured values from patent US20200179428A1, “CYCLIC PHOSPHATE SUBSTITUTED NUCLEOSIDE DERIVATIVES AND METHODS OF USE THEREOF FOR THE TREATMENT OF VIRAL DISEASES” (priority 2016, published 2020).

Columns and labels:
[1] = Cytotoxicity MTS assay (CellTiter 96 Aqueous One Solution) in replicon cells; format: cell-based; conditions: HCV replicon cells (1b-Con1); EDU; read-out: CC50 (EDU) Range
Description: (§1) To measure cell-based anti-HCV activity of the compounds of the present invention, replicon cells (1b-Con1) are seeded at 5000 cells/well in 96-well plates one day prior to treatment with a compound of the invention. Various concentrations of a test compound of the invention in DMSO are then added to the replicon cells, with the final concentration of DMSO at 0.5% and fetal bovine serum at 10% in the assay media. Cells are harvested three days post-dosing, and the replicon RNA level is determined using real-time RT-PCR (Taqman assay) with GAPDH RNA as endogenous control. EC50 values are calculated from experiments with 10 serial twofold dilutions of the inhibitor in triplicate. To measure cytotoxicity in replicon cells of an inhibitor, an MTS assay is performed according to the manufacturer's protocol for CellTiter 96 Aqueous One Solution Cell Proliferation Assay (Promega, Cat # G3580) three days post dosing on cells treated identically as in replicon activity assays. […] Cytotoxicity in other types of cells may be measured using the same MTS protocol.

replicon cells (1b-Con1) = assay: Replicon activity assay (replicon RNA level by real-time RT-PCR, Taqman); format: cell-based; conditions: Hepatitis C virus, HCV replicon genotype 1b; read-out: EC50 (1b) Range
Description: as §1

| SMILES | CC50 at 3 days [1] [µM] | EC50 (replicon cells (1b-Con1)) [µM] |
| --- | --- | --- |
| C#C[C@]1(C)[C@@H]2O[P@@](=O)(OCC(C)CCC(=O)OC(C)C)OC[C@H]2O[C@H]1n1ccc(=O)[nH]c1=O (some centres unmarked) [Compound 22A] | > 50 | > 10 |
| C#C[C@]1(C)[C@@H]2O[P@@](=O)(OC[C@H](CC(=O)OC(C)C)OC)OC[C@H]2O[C@H]1n1ccc(=O)[nH]c1=O [Compound 60A] | > 50 | > 10 |
| C#C[C@]1(C)[C@@H]2O[P@@](=O)(OCC[C@H](OC)C(=O)OC(C)C)OC[C@H]2O[C@H]1n1ccc(=O)[nH]c1=O [Compound 56A] | > 50 | 0.25 to 1 |
| CC(C)OC(=O)C(CCOP1(=O)OC[C@H]2O[C@@H](n3ccc(=O)[nH]c3=O)[C@](C)(Cl)[C@@H]2O1)C(=O)OC(C)C (some centres unmarked) [Compound 38A] | > 50 | ≤ 0.25 |
| C#C[C@]1(C)[C@@H]2O[P@](=O)(OCC[C@H](C)C(=O)OC(C)C)OC[C@H]2O[C@H]1n1cnc2c(N)ncnc21 [Compound 72B] | > 50 | 0.25 to 1 |
| C#C[C@@]1(O)[C@@H]2OP(=O)(OCC[C@H](C)C(=O)OC3CCCC3)OC[C@H]2O[C@H]1n1ccc(=O)[nH]c1=O (single isomer, unassigned) [Compound 8A1] | > 50 | 0.25 to 1 |
| CC(C)OC(=O)C(C)CCCO[P@]1(=O)OC[C@H]2O[C@@H](n3ccc(=O)[nH]c3=O)[C@](C)(N)[C@@H]2O1 (some centres unmarked) [Compound 34B] | > 50 | > 10 |
| C#C[C@]1(C)[C@@H]2O[P@](=O)(OC[C@H](F)CC(=O)OC(C)C)OC[C@H]2O[C@H]1n1ccc(=O)[nH]c1=O [Compound 66B] | > 50 | 0.25 to 1 |
| C#C[C@]1(C)[C@@H]2O[P@@](=O)(OCC(C)(C)CC(=O)OC(C)C)OC[C@H]2O[C@H]1n1ccc(=O)[nH]c1=O [Compound 18A] | > 50 | > 10 |
| C#C[C@]1(C)[C@@H]2O[P@](=O)(OC[C@H](CC(=O)OC(C)C)OC)OC[C@H]2O[C@H]1n1ccc(=O)[nH]c1=O [Compound 60B] | > 50 | > 10 |
| C#C[C@]1(C)[C@@H]2O[P@](=O)(OCC(C)(C)CC(=O)OC(C)C)OC[C@H]2O[C@H]1n1ccc(=O)[nH]c1=O [Compound 18B] | > 50 | > 10 |
| C#C[C@]1(C)[C@@H]2O[P@@](=O)(OCC[C@H](C)C(=O)OC(C)C)OC[C@H]2O[C@H]1n1cnc2c(N)ncnc21 [Compound 72A] | > 50 | > 10 |
| C#C[C@]1(C)[C@@H]2O[P@](=O)(OCC[C@H](NC(=O)OC)C(=O)OC(C)C)OC[C@H]2O[C@H]1n1ccc(=O)[nH]c1=O [Compound 43B] | > 50 | > 10 |
| CC(=O)O[C@@H](CO[P@@]1(=O)OC[C@H]2O[C@@H](n3ccc(=O)[nH]c3=O)[C@](C)(N)[C@@H]2O1)[C@@H](OC(C)=O)C(=O)OC(C)C [Compound 54A] | > 50 | > 10 |
| CCOC(=O)C1(CCO[P@@]2(=O)OC[C@H]3O[C@@H](n4ccc(=O)[nH]c4=O)[C@](C)(N)[C@@H]3O2)CC1 [Compound 28A] | > 50 | > 10 |
| C#C[C@@]1(OC(=O)CCC)[C@@H]2O[P@@](=O)(OCC[C@H](C)C(=O)OC(C)C)OC[C@H]2O[C@H]1n1ccc(=O)[nH]c1=O [Compound 85A2] | > 50 | ≤ 0.25 |
| CC(C)OC(=O)C(CCO[P@@]1(=O)OC[C@H]2O[C@@H](n3ccc(=O)[nH]c3=O)[C@](C)(N)[C@@H]2O1)C(C)C (some centres unmarked) [Compound 24A] | > 50 | > 10 |
| C#C[C@@]1(O)[C@@H]2OP(=O)(OCC[C@@H](C)C(=O)OC(C)C)OC[C@H]2O[C@H]1n1ccc(=O)[nH]c1=O (single isomer, unassigned) [Compound 7A1] | > 50 | 0.25 to 1 |
| CO[C@H](CCOP1(=O)OC[C@H]2O[C@@H](n3ccc(=O)[nH]c3=O)[C@](C)(Cl)[C@@H]2O1)C(=O)OC(C)C (some centres unmarked) [Compound 37A] | > 50 | 0.25 to 1 |
